Source: patent publication US9249129B2, “Morpholino substituted urea derivatives as mTOR inhibitors” (CELLZOME LIMITED, priority 2010, dated 2016)

Assays:
Experiment in all cases: kinobeads assay with mass spectrometry detection of kinases (kinase selectivity profile)
Format in all cases: binding
kinases (kinome) [1] = target: T1, kinases (kinome) (Homo sapiens, UniProt P12931); conditions: SRC (TK), IPI00328867
T1 construct: determined in kinobeads assays with mass spectrometry detection of kinases as described previously; endogenous in cells; host or cells: cell lysate
Source text: (§1) The protein kinase complement of the human genome (the kinome) was described previously (Manning et al., 2002. Science 298(5600):1912-1934). Sequence accession numbers are defined by the International Protein Index (IPI) (Kersey et al., 2004. Proteomics 4(7):1985-1988).

kinases (kinome) [2] = target: T2, kinases (kinome) (Homo sapiens, UniProt P49840); conditions: GSK3A (CMGC), IPI00292228
T2 construct: determined in kinobeads assays with mass spectrometry detection of kinases as described previously; endogenous in cells; host or cells: cell lysate
Source text: as §1

kinases (kinome) [3] = target: T3, kinases (kinome) (Homo sapiens, UniProt O15530); conditions: PDK1 (AGC), IPI00002538
T3 construct: determined in kinobeads assays with mass spectrometry detection of kinases as described previously; endogenous in cells; host or cells: cell lysate
T3 sequence (O15530 1-556): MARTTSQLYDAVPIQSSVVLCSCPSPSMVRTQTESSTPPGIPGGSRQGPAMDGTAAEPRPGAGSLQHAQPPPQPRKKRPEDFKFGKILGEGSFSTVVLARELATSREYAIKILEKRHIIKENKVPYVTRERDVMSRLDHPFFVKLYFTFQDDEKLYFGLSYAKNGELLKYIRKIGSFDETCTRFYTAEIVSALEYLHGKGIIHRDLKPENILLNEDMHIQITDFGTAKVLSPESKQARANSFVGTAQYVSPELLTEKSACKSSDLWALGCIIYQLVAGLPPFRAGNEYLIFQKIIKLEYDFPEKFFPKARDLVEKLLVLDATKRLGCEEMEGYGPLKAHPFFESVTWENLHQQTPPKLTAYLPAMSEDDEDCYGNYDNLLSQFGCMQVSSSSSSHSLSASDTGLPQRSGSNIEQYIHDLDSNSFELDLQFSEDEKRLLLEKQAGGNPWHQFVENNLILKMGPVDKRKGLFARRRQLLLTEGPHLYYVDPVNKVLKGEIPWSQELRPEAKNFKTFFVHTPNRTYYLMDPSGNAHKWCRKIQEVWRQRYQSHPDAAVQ
Source text: as §1

kinases (kinome) [4] = target: T4, kinases (kinome) (Homo sapiens, UniProt P16591); conditions: FER (TK), IPI00029263
T4 construct: determined in kinobeads assays with mass spectrometry detection of kinases as described previously; endogenous in cells; host or cells: cell lysate
Source text: as §1

kinases (kinome) [5] = target: T5, kinases (kinome) (Homo sapiens, UniProt Q96L34); conditions: MARK4 (CAMK), IPI00064797
T5 construct: determined in kinobeads assays with mass spectrometry detection of kinases as described previously; endogenous in cells; host or cells: cell lysate
T5 sequence (Q96L34 1-752): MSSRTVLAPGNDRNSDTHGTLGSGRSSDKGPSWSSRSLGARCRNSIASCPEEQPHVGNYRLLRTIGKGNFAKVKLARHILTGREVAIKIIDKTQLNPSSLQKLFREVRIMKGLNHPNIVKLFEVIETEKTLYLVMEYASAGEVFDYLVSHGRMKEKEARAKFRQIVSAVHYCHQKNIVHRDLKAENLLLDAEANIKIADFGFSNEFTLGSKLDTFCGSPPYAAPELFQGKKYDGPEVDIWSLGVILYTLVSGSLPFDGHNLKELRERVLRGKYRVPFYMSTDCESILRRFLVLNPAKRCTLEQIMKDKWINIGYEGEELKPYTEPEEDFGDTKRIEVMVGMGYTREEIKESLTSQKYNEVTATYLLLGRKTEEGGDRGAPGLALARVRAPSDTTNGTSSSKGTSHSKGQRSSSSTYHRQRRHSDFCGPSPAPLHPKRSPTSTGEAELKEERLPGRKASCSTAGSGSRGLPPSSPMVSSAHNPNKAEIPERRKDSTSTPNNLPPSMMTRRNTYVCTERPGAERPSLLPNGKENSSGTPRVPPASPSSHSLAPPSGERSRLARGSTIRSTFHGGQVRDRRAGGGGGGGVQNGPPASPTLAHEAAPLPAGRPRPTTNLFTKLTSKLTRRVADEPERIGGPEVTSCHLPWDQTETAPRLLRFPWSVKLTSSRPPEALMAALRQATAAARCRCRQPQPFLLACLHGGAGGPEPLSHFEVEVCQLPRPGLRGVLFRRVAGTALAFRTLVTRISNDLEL
Source text: as §1

kinases (kinome) [6] = target: T6, kinases (kinome) (Homo sapiens, UniProt P30291); conditions: Wee1 (Other), IPI00025830
T6 construct: determined in kinobeads assays with mass spectrometry detection of kinases as described previously; endogenous in cells; host or cells: cell lysate
Source text: as §1

kinases (kinome) [7] = target: T7, kinases (kinome) (Homo sapiens, UniProt P41240); conditions: CSK (TK), IPI00013212
T7 construct: determined in kinobeads assays with mass spectrometry detection of kinases as described previously; endogenous in cells; host or cells: cell lysate
Source text: as §1

kinases (kinome) [8] = target: T8, kinases (kinome) (Homo sapiens, UniProt Q8TCG2); conditions: PIK4C2B (Lipid Kinase), IPI00291068
T8 construct: determined in kinobeads assays with mass spectrometry detection of kinases as described previously; endogenous in cells; host or cells: cell lysate
Source text: as §1

kinases (kinome) [9] = target: T9, kinases (kinome) (Homo sapiens, UniProt Q9H2K8); conditions: TAO3 (STE), IPI00410485
T9 construct: determined in kinobeads assays with mass spectrometry detection of kinases as described previously; endogenous in cells; host or cells: cell lysate
T9 sequence (Q9H2K8 1-898): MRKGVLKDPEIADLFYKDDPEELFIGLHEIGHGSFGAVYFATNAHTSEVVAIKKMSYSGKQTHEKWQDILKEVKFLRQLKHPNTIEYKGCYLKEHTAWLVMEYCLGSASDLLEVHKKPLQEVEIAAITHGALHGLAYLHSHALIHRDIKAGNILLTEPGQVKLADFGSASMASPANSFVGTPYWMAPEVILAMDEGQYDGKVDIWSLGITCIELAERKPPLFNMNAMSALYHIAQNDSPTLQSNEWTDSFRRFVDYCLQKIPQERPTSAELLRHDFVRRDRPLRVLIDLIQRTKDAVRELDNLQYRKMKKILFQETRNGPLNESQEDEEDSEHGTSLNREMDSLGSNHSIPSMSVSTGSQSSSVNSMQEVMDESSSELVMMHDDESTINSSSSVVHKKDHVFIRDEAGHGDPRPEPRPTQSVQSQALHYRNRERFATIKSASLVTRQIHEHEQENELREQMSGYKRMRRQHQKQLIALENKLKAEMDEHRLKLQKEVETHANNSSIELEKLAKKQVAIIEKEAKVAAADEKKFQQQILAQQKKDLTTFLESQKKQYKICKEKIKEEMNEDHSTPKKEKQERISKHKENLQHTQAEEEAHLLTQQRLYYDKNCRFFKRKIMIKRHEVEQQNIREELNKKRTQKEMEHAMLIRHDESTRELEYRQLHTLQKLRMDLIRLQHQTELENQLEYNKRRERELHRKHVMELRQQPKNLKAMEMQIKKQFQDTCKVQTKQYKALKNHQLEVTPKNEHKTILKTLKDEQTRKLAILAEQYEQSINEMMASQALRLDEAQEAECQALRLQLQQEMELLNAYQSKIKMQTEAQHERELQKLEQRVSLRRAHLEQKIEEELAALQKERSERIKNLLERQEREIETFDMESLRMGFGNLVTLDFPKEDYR
Source text: as §1

kinases (kinome) [10] = target: T10, kinases (kinome) (Homo sapiens, UniProt Q05397); conditions: FAK (TK), IPI00413961
T10 construct: determined in kinobeads assays with mass spectrometry detection of kinases as described previously; endogenous in cells; host or cells: cell lysate
Source text: as §1

Measured: IC50

T4 sequence (P16591 whole entry): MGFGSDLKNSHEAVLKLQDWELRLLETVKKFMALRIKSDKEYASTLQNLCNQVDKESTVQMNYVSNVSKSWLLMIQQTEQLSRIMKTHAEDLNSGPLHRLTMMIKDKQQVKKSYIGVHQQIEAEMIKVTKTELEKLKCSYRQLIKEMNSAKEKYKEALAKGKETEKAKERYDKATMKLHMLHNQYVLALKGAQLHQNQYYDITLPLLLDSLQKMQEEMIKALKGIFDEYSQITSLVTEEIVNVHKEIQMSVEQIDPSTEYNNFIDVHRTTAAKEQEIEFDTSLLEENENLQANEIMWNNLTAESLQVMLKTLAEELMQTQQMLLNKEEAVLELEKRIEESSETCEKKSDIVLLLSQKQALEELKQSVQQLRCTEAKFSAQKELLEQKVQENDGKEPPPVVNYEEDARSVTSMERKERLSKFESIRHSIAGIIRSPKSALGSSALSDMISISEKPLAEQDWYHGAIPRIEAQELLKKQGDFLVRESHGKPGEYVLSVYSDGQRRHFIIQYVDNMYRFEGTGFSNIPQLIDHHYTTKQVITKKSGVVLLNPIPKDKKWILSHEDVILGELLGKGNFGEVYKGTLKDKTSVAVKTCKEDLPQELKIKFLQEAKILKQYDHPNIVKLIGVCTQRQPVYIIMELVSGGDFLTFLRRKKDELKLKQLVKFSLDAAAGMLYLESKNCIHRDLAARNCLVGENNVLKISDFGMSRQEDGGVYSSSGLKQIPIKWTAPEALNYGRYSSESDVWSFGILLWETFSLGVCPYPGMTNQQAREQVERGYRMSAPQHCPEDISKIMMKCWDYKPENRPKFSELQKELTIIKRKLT
T6 sequence (P30291 whole entry): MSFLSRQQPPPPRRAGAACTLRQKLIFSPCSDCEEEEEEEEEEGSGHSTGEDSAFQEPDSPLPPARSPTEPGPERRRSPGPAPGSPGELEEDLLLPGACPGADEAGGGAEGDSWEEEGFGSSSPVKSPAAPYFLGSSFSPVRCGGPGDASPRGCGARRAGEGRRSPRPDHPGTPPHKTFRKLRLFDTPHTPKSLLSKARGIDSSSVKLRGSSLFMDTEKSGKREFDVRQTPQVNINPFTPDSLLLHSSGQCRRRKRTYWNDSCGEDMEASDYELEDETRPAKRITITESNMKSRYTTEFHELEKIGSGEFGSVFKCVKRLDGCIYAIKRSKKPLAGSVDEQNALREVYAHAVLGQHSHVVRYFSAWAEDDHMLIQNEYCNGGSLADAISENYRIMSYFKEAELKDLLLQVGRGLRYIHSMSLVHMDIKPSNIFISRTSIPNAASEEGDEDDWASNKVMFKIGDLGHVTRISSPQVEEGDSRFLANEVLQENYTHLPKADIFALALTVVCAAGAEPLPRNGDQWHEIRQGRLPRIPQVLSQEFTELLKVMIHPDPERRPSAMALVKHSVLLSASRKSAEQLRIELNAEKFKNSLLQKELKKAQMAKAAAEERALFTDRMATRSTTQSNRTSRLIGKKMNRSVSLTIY
T10 sequence (Q05397 whole entry): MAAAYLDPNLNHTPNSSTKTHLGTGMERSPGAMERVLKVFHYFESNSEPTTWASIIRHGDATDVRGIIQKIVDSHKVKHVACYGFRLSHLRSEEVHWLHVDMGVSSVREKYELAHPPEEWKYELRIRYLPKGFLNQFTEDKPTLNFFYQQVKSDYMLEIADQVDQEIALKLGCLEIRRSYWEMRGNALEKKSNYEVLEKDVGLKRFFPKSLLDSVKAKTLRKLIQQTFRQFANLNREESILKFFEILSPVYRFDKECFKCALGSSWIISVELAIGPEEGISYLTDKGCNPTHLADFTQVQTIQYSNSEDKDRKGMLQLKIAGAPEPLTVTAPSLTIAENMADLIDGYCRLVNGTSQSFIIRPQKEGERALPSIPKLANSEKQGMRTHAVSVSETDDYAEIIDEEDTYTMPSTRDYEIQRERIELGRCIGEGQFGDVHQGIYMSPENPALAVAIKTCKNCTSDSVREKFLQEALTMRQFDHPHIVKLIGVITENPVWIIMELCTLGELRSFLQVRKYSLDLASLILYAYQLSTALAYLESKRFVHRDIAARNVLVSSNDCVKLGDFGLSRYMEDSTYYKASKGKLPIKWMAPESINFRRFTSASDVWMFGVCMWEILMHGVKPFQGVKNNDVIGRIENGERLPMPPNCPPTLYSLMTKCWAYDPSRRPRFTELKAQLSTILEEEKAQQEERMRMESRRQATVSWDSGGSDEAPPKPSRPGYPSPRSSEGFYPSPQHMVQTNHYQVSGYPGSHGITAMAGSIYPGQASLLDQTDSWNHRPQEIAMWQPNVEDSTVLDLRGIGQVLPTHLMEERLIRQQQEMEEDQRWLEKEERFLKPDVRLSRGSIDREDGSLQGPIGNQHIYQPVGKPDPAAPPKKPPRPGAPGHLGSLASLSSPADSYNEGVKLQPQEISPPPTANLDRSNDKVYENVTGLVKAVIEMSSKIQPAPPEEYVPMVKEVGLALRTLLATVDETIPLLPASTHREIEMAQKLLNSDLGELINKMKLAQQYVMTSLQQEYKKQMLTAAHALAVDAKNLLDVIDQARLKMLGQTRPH
T8 sequence (Q8TCG2 whole entry): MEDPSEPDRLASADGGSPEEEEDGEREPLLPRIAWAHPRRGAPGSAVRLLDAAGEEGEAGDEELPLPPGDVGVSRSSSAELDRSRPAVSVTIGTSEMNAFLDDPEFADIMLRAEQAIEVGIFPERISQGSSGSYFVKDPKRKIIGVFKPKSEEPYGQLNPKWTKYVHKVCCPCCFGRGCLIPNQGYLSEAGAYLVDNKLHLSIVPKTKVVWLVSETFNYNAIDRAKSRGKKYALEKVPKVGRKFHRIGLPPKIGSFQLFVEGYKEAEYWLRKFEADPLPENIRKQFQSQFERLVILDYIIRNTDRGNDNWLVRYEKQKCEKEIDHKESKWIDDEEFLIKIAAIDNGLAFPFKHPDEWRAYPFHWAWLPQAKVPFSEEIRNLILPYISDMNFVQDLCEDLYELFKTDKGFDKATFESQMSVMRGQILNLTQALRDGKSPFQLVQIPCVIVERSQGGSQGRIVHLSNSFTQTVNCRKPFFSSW
T7 sequence (P41240 whole entry): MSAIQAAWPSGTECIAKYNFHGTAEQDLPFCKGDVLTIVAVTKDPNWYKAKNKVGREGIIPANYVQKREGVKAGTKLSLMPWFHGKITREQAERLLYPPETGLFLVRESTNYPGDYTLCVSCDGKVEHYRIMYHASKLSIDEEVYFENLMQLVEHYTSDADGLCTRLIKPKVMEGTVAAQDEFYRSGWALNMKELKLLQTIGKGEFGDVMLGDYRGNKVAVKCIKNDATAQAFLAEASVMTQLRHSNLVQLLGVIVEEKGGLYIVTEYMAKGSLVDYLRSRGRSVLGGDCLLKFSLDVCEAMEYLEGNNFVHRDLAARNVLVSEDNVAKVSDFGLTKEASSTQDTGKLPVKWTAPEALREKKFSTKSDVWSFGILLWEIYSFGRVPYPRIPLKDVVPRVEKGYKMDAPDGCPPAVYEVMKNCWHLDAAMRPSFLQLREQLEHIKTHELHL
T1 sequence (P12931 whole entry): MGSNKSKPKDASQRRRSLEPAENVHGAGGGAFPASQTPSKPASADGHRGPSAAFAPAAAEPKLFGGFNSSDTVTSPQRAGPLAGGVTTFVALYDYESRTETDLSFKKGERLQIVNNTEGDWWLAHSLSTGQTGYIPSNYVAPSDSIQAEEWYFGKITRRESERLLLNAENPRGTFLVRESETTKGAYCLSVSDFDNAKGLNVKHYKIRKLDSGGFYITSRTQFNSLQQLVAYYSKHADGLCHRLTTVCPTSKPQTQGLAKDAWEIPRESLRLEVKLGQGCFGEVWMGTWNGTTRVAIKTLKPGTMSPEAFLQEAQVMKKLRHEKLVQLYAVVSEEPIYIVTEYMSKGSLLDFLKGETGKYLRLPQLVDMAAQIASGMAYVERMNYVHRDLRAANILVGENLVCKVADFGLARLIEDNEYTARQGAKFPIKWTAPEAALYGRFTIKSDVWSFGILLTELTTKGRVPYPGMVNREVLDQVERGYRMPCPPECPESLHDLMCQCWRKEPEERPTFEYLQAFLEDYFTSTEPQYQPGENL
T2 sequence (P49840 whole entry): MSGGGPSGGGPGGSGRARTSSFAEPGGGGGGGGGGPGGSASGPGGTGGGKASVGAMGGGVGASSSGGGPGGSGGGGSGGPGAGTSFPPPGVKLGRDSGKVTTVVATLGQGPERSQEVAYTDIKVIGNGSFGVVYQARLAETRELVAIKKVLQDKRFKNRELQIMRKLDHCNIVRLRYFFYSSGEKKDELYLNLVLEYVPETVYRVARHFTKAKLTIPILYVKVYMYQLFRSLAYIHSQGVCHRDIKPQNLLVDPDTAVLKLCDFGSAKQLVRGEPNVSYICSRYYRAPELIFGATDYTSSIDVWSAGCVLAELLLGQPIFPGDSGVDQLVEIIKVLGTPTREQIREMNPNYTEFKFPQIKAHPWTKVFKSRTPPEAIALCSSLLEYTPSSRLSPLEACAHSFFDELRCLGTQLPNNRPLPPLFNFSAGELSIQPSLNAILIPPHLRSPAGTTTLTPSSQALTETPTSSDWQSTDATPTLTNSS

C[C@H]1COCCN1c1nc(-c2ccc(NC(=O)N[C@H]3CCC[C@@H]3O)cc2)cc(-c2cc(F)ccc2S(C)(=O)=O)n1 [Example 76, 1-(4-(6-(5-fluoro-2-(methylsulfonyl)phenyl)-2-((S)-3-methylmorpholino)pyrimidin-4-yl)phenyl)-3-((1S,2S)-2-hydroxycyclopentyl)urea]
> 10 µM: all assays above

C[C@H]1COCCN1c1nc(-c2ccc(NC(=O)NC3CC3)cc2)cc(-c2ccccc2S(C)(=O)=O)n1 [Example 4, (S)-1-cyclopropyl-3-(4-(2-(3-methylmorpholino)-6-(2-(methylsulfonyl)phenyl)pyrimidin-4-yl)phenyl)urea]
> 10 µM: all assays above

C[C@H]1COCCN1c1cc(-c2ccccc2S(C)(=O)=O)nc(-c2ccc(NC(=O)NC3CC3)cc2)n1 [Example 6, (S)-1-cyclopropyl-3-(4-(4-(3-methylmorpholino)-6-(2-(methylsulfonyl)phenyl)pyrimidin-2-yl)phenyl)urea]
> 10 µM: all assays above

C[C@H]1COCCN1c1cc(-c2ccccn2)nc(-c2ccc(NC(=O)NCCO)cc2)n1 [Example 43, (S)-1-(2-hydroxyethyl)-3-(4-(4-(3-methylmorpholino)-6-(pyridin-2-yl)pyrimidin-2-yl)phenyl)urea]
> 10 µM: all assays above

C[C@H]1COCCN1c1nc(-c2ccc(NC(=O)NC3CC3)cc2)cc(-c2cccnc2S(C)(=O)=O)n1 [Example 46, (S)-1-cyclopropyl-3-(4-(2-(3-methylmorpholino)-6-(2-(methylsulfonyl)pyridin-3-yl)pyrimidin-4-yl)phenyl)urea]
> 10 µM: all assays above

CCNC(=O)Nc1ccc(-c2cc(-c3ccccc3C#N)nc(N3CCOC[C@@H]3C)n2)cc1 [Example 8, (S)-1-(4-(6-(2-cyanophenyl)-2-(3-methylmorpholino)pyrimidin-4-yl)phenyl)-3-ethylurea]
> 10 µM: all assays above

C[C@H]1COCCN1c1nc(-c2ccc(NC(=O)NC3CC3)cc2)cc(-c2cc(F)ccc2S(C)(=O)=O)n1 [Example 40, (S)-1-cyclopropyl-3-(4-(6-(5-fluoro-2-(methylsulfonyl)phenyl)-2-(3-methylmorpholino)pyrimidin-4-yl)phenyl)urea]
> 10 µM: all assays above
